Activity calls are given as the source filed them.
What was measured:
Pseudomonas aeruginosa [1] = test: Antibiofilm activity in Pseudomonas aeruginosa assessed as biofilm eradication measured after 24 hrs by crystal violet staining based analysis; assay type: functional, organism-based; details: dose 1-2 µg/ml
Staphylococcus aureus [2] = test: Antibacterial activity against Staphylococcus aureus ATCC 12600 assessed as inhibition of bacterial growth incubated for 24 hrs; assay type: functional
Enterococcus faecalis [3] = test: Antibacterial activity against vancomycin-resistant Enterococcus faecalis clinical isolate p1-2007225053 assessed as inhibition of bacterial growth incubated for 24 hrs; assay type: functional
Staphylococcus aureus [4] = test: Antibacterial activity against methicillin resistant Staphylococcus aureus clinical isolate assessed as inhibition of bacterial growth incubated for 24 hrs; assay type: functional
Staphylococcus aureus [5] = test: Antibacterial activity against Staphylococcus aureus clinical isolate assessed as inhibition of bacterial growth incubated for 24 hrs; assay type: functional
Staphylococcus aureus [6] = test: Antibacterial activity against ciprofloxacin-treated Staphylococcus aureus ATCC 6538 assessed as inhibition of bacterial growth measured after 24 hrs; assay type: functional
Escherichia coli [7] = test: Antibacterial activity against Escherichia coli clinical isolate assessed as inhibition of bacterial growth incubated for 24 hrs; assay type: functional
Cell membrane [8] = test: Induction of cell membrane damage in methicillin-resistant Staphylococcus aureus assessed as increase in nucleic acid leakage at 0 to 2 ug/ml incubated for 12 hrs by optical density based microplate reader analysis; assay type: cell membranes; details: dose 0-2 µg/ml
Staphylococcus aureus [9] = test: Antibacterial activity against methicillin-resistant Staphylococcus aureus ATCC 43300 assessed as inhibition of bacterial growth incubated for 24 hrs; assay type: functional
L02 = test: Cytotoxicity against human L02 cells assessed as reduction in cell viability at 0.78 to 25 ug/ml measured after 24 hrs by MTT assay; assay type: toxicity, cell-based; details: l02, 24 h, dose 0.78-25 µg/ml
[10] = Cytotoxicity against HUVEC cells assessed as cell viability at 25 ug/ml measured after 24 hrs by MTT assay relative to control; assay type: toxicity, cell-based; details: human, at 25 µg/mL, read-out: Activity
[11] = Hemolytic activity in human Red blood cells at 256 ug/ml measured after 1.5 hrs by absorbance based assay relative to control; assay type: toxicity, cell-based, Erythrocyte; details: red blood cells (erythrocytes), at 256 µg/mL, read-out: Activity
Staphylococcus aureus [12] = test: Antibacterial activity against methicillin resistant Staphylococcus aureus clinical isolate assessed as inhibition of bacterial growth at 1 times MIC incubated under dark condition and measured upto 5 hrs relative to control; assay type: functional
HUVEC = test: Cytotoxicity against HUVEC cells assessed as reduction in cell viability at 0.78 to 25 ug/ml measured after 24 hrs by MTT assay; assay type: toxicity, cell-based; details: human, dose 0.78-25 µg/ml
Enterococcus faecium = test: Antibacterial activity against Enterococcus faecium ATCC 19434 assessed as inhibition of bacterial growth incubated for 24 hrs; assay type: functional
Cell membrane [13] = test: Induction of cell membrane permeability in Pseudomonas aeruginosa assessed as increase in fluorescence intensity at 1 to 2 ug/ml incubated for 6 hrs by PI staining based fluorescence analysis; assay type: cell membranes; details: dose 1-2 µg/ml
Staphylococcus aureus [14] = test: Antibacterial activity against Staphylococcus aureus ATCC 25923 assessed as inhibition of bacterial growth incubated for 24 hrs; assay type: functional
Pseudomonas aeruginosa [15] = test: Antibacterial activity against Pseudomonas aeruginosa assessed as reduction in metabolic activity by measuring reduction in fluorescence intensity at 0.5 to 2 times MIC incubated for 6 hrs by alamar blue assay; assay type: functional, organism-based
Enterococcus faecalis [16] = test: Potency index, ratio of ciprofloxacin MIC to test compound MIC for antibacterial activity against vancomycin-resistant Enterococcus faecalis clinical isolate p1-2007225053 assessed as inhibition of bacterial growth incubated for 24 hrs; assay type: functional
Cell membrane [17] = test: Induction of cell membrane depolarization in methicillin-resistant Staphylococcus aureus assessed as increase in fluorescence intensity at 1 ug/ml measured for 30 mins by DiSC35 dye based fluorescence analysis; assay type: cell membranes; details: dose 1.0 µg/ml
Staphylococcus aureus [18] = test: Antibacterial activity against Staphylococcus aureus ATCC 6538 assessed as inhibition of bacterial growth incubated for 24 hrs; assay type: functional
[19] = Cytotoxicity against human FHC assessed as inhibition of cell growth measured after 24 hrs by MTT assay; assay type: toxicity, cell-based; details: FHC cells
Enterococcus faecalis [20] = test: Antibacterial activity against Enterococcus faecalis clinical isolate assessed as inhibition of bacterial growth incubated for 24 hrs; assay type: functional
Staphylococcus aureus [21] = test: Antibacterial activity against Staphylococcus aureus CMCC(B)26001 assessed as inhibition of bacterial growth incubated for 24 hrs; assay type: functional
Pseudomonas aeruginosa [22] = test: Induction of intracellular ROS generation in Pseudomonas aeruginosa assessed as increase in fluorescence intensity at 2 ug/ml incubated for 6 hrs by DCFH-DA dye based fluorescence analysis; assay type: functional, organism-based; details: dose 2.0 µg/ml
Streptococcus pneumoniae = test: Antibacterial activity against Streptococcus pneumoniae ATCC 6305 assessed as inhibition of bacterial growth incubated for 24 hrs; assay type: functional
Staphylococcus aureus [23] = test: Antibacterial activity against Staphylococcus aureus ATCC 29213 assessed as inhibition of bacterial growth incubated for 24 hrs; assay type: functional
Pseudomonas aeruginosa [24] = test: Resistance development in Pseudomonas aeruginosa assessed as increase in MIC measured after 20 days; assay type: functional, organism-based; details: time 20.0 day
Pseudomonas aeruginosa [25] = test: Antibacterial activity against Pseudomonas aeruginosa clinical isolate assessed as inhibition of bacterial growth incubated for 24 hrs; assay type: functional
Escherichia coli [26] = test: Antibacterial activity against Escherichia coli ATCC 25922 assessed as inhibition of bacterial growth incubated for 24 hrs; assay type: functional
Enterococcus faecalis [27] = test: Potency index, ratio of norfloxacin MIC to test compound MIC for antibacterial activity against vancomycin-resistant Enterococcus faecalis clinical isolate p1-2007225053 assessed as inhibition of bacterial growth incubated for 24 hrs; assay type: functional
[28] = Cytotoxicity against human normal Squamous epithelial cell (NOK) assessed as inhibition of cell growth measured after 24 hrs by MTT assay; assay type: toxicity, cell-based; details: normal squamous epithelial cells (NOK)
Pseudomonas aeruginosa [29] = test: Antibacterial activity against Pseudomonas aeruginosa ATCC 27853 assessed as inhibition of bacterial growth incubated for 24 hrs; assay type: functional
Acinetobacter baumannii = test: Antibacterial activity against Acinetobacter baumannii clinical isolate assessed as inhibition of bacterial growth incubated for 24 hrs; assay type: functional
Cell membrane [30] = test: Induction of cell membrane permeability in methicillin-resistant Staphylococcus aureus assessed as increase in fluorescence intensity at 1 to 2 ug/ml incubated for 6 hrs by PI staining based fluorescence analysis; assay type: cell membranes; details: dose 1-2 µg/ml
Staphylococcus aureus [31] = test: Antibacterial activity against Staphylococcus aureus CMCC(B)26003 assessed as inhibition of bacterial growth incubated for 24 hrs; assay type: functional
Enterococcus faecalis [32] = test: Antibacterial activity against vancomycin-resistant Enterococcus faecalis clinical isolate p1-2007226001 assessed as inhibition of bacterial growth incubated for 24 hrs; assay type: functional
Cell membrane [33] = test: Induction of cell membrane depolarization in Pseudomonas aeruginosa assessed as increase in fluorescence intensity at 1 ug/ml measured for 30 mins by DiSC35 dye based fluorescence analysis; assay type: cell membranes; details: dose 1.0 µg/ml
Erythrocyte = test: Hemolytic activity in human Red blood cells assessed as concentration required for 5% hemolysis measured after 1.5 hrs by absorbance based assay; assay type: toxicity, cell-based
[34] = test system: Staphylococcus epidermidis; test: Antibacterial activity against Staphylococcus epidermidis ATCC 12228 assessed as inhibition of bacterial growth incubated for 24 hrs; assay type: functional
Staphylococcus aureus [35] = test: Antibacterial activity against methicillin resistant Staphylococcus aureus assessed as reduction in metabolic activity by measuring reduction in fluorescence intensity at 0.5 to 2 times MIC incubated for 6 hrs by alamar blue assay; assay type: functional, organism-based
Pseudomonas aeruginosa [36] = test: Antibacterial activity against ciprofloxacin-treated Pseudomonas aeruginosa ATCC 27853 assessed as inhibition of bacterial growth measured after 24 hrs; assay type: functional
Streptococcus pyogenes = test: Antibacterial activity against Streptococcus pyogenes ATCC 19615 assessed as inhibition of bacterial growth incubated for 24 hrs; assay type: functional
Cell membrane [37] = test: Induction of cell membrane damage in Pseudomonas aeruginosa assessed as increase in nucleic acid leakage at 0 to 2 ug/ml incubated for 12 hrs by optical density based microplate reader analysis; assay type: cell membranes; details: dose 0-2 µg/ml
Staphylococcus aureus [38] = test: Resistance development in methicillin resistant Staphylococcus aureus assessed as increase in MIC measured after 20 days; assay type: functional, organism-based; details: time 20.0 day
Staphylococcus aureus [39] = test: Antibiofilm activity in methicillin resistant Staphylococcus aureus assessed as biofilm eradication measured after 24 hrs by crystal violet staining based analysis; assay type: functional, organism-based; details: dose 1-2 µg/ml
Pseudomonas aeruginosa [40] = test: Induction of intracellular ROS generation in Pseudomonas aeruginosa assessed as increase in fluorescence intensity at 2 ug/ml incubated for 6 hrs in presence of N-acetyl-L-cysteine by DCFH-DA dye based fluorescence analysis; assay type: functional, organism-based; details: dose 2.0 µg/ml
Klebsiella pneumoniae = test: Antibacterial activity against Klebsiella pneumoniae clinical isolate assessed as inhibition of bacterial growth incubated for 24 hrs; assay type: functional

C[C@H]1COc2c(CC#N)c(F)cc3c(=O)c(C(=O)O)cn1c23
2: Ratio (Enterococcus faecalis [16])
21 µg/mL: IC50 at 24 h [19]
> 90%: viability at 24 h, 25 ug/ml [10]
8: Ratio (Enterococcus faecalis [27])
0.5 µg/mL: MIC (Staphylococcus aureus [4]) | MIC (Enterococcus faecium) | MIC (Streptococcus pneumoniae) | MIC (Staphylococcus aureus [23]) | MIC (Enterococcus faecalis [32])
54 µg/mL: IC50 at 24 h [28]
< 1%: hemolysis at 1.5 h, 256 ug/ml [11]
2 µg/mL: MIC (Staphylococcus aureus [6]) | MIC (Enterococcus faecalis [20]) | MIC (Pseudomonas aeruginosa [36]) | MIC (Streptococcus pyogenes)
inactive: Activity (Pseudomonas aeruginosa [24]) | Activity (Staphylococcus aureus [38]) | Activity (Pseudomonas aeruginosa [40])
active: Activity (Pseudomonas aeruginosa [1]) Dose-Dependent Effect | Activity (Cell membrane [8]) | Activity (Cell membrane [13]) | Activity (Pseudomonas aeruginosa [15]) | Activity (Cell membrane [17]) | Activity (Pseudomonas aeruginosa [22]) | Activity (Cell membrane [30]) | Activity (Cell membrane [33]) | Activity (Staphylococcus aureus [35]) | Activity (Cell membrane [37]) | Activity (Staphylococcus aureus [39]) Dose-Dependent Effect
1 µg/mL: MIC (Escherichia coli [7]) | MIC (Klebsiella pneumoniae)
> 10000 µg/mL: HC5 (Erythrocyte)
0.125 µg/mL: MIC (Enterococcus faecalis [3]) | MIC (Staphylococcus aureus [9]) | MIC (Staphylococcus aureus [21]) | MIC (Staphylococcus aureus [31])
0.25 µg/mL: MIC (Staphylococcus aureus [2]) | MIC (Staphylococcus aureus [5]) | MIC (Staphylococcus aureus [14]) | MIC (Staphylococcus aureus [18]) | MIC (Pseudomonas aeruginosa [25]) | MIC (Escherichia coli [26]) | MIC (Pseudomonas aeruginosa [29]) | MIC (Acinetobacter baumannii) | MIC [34]
~100%: inhibition (INH) (Staphylococcus aureus [12])
Non-Toxic: Activity (L02) | Activity (HUVEC)
